In patent US6525001B1, “Substituted pyrimidine and pyridine herbicides” (Mid-American Commercialization Corporation, priority 1997, dated 2003):

Key:
Type in all cases: in vivo
Parameters in all cases: key: 0 is no effect; 10 is complete control
[1] = system: bedstraw (Galium aparine); experiment: Test B pre-/postemergence
Method in brief: (§1)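 Response scores run from 0, meaning no effect, to 10, meaning complete control, assigned by eye relative to controls twelve to sixteen days after spraying. Treatment was both preemergence on planted seed and postemergence on plants at the 1- to 4-leaf stage.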

corn (Zea mays) = experiment: Test B pre-/postemergence
Method in brief: as §1

[2] = system: crabgrass (Digitaria sanguinalis); experiment: Test B pre-/postemergence
Method in brief: as §1

[3] = system: giant foxtail (Setaria faberii); experiment: Test B pre-/postemergence
Method in brief: as §1

[4] = system: purple nutsedge (Cyperus rotundus); experiment: Test B pre-/postemergence
Method in brief: as §1

rape (Brassica napus) = experiment: Test B pre-/postemergence
Method in brief: as §1

soybean (Glycine max) = experiment: Test B pre-/postemergence
Method in brief: as §1

[5] = system: sugar beet (Beta vulgaris); experiment: Test B pre-/postemergence
Method in brief: as §1

[6] = system: velvetleaf (Abutilon theophrasti); experiment: Test B pre-/postemergence
Method in brief: as §1

[7] = system: wheat (Triticum aestivum); experiment: Test B pre-/postemergence
Method in brief: as §1

wild oat (Avena fatua) = experiment: Test B pre-/postemergence
Method in brief: as §1

[8] = system: bamyardgrass (Echinochloa crus-galli); experiment: Test B flood test; settings: for Plant response rating, Barnyardgrass: Postemergence (flood test species)
Method in brief: (§2)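 Each value is a visual injury score relative to controls, with 10 meaning complete control and 0 no effect. Evaluation took place twelve to sixteen days after the 2-leaf-stage plants were treated and kept in the greenhouse.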

[9] = system: duck salad (Heteranthera limosa); experiment: Test B flood test; settings: for Plant response rating, Ducksalad: Postemergence (flood test species)
Method in brief: as §2

rice (Oryza sativa) = experiment: Test B flood test; settings: for Plant response rating, Rice: Postemergence (flood test species)
Method in brief: as §2

[10] = system: smallflower flatsedge (Cyperus difformis); experiment: Test B flood test; settings: for Plant response rating, S. Flatsedge: Postemergence (flood test species)
Method in brief: as §2

[11] = Preemergence, Rate 62 g/ha, scale of 0 to 10
[12] = Rate 62 g/ha, Postemergence (flood test)
[13] = Rate 125 g/ha, Postemergence section (flood test species)

SMILES: Cc1cnc(-n2ccc(C(F)(F)C(F)(F)F)n2)nc1C(=O)c1cccc(C(F)(F)F)c1 [Compound 68]
- Plant response rating, Bedstraw [1, 11]: 3
- Bedstraw plant response rating ([1]; Rate 62 g/ha, Postemergence): 5
- Bedstraw plant response rating ([1]; Rate 125 g/ha, Postemergence): 6
- Plant response rating, Bedstraw ([1]; Rate 125 g/ha, Preemergence): 5
- Plant response rating, Bedstraw ([1]; Rate 250 g/ha, Postemergence): 9
- Plant response rating, Bedstraw ([1]; Rate 250 g/ha, Preemergence): 6
- Plant response rating, Bedstraw ([1]; Rate 500 g/ha, Postemergence): 10
- Plant response rating, Bedstraw ([1]; Rate 500 g/ha, Preemergence): 6
- Plant response rating, Corn (corn (Zea mays); [11]): 0
- Corn plant response rating (corn (Zea mays); Rate 62 g/ha, Postemergence): 1
- Corn plant response rating (corn (Zea mays); Rate 125 g/ha, Postemergence): 1
- Plant response rating, Corn (corn (Zea mays); Rate 125 g/ha, Preemergence): 1
- Plant response rating, Corn (corn (Zea mays); Rate 250 g/ha, Postemergence): 2
- Plant response rating, Corn (corn (Zea mays); Rate 250 g/ha, Preemergence): 1
- Plant response rating, Corn (corn (Zea mays); Rate 500 g/ha, Postemergence): 2
- Plant response rating, Corn (corn (Zea mays); Rate 500 g/ha, Preemergence): 1
- Plant response rating, Crabgrass [2, 11]: 3
- Crabgrass plant response rating ([2]; Rate 62 g/ha, Postemergence): 5
- Crabgrass plant response rating ([2]; Rate 125 g/ha, Postemergence): 8
- Plant response rating, Crabgrass ([2]; Rate 125 g/ha, Preemergence): 4
- Plant response rating, Crabgrass ([2]; Rate 250 g/ha, Postemergence): 8
- Plant response rating, Crabgrass ([2]; Rate 250 g/ha, Preemergence): 9
- Plant response rating, Crabgrass ([2]; Rate 500 g/ha, Postemergence): 8
- Plant response rating, Crabgrass ([2]; Rate 500 g/ha, Preemergence): 10
- Plant response rating, Giant foxtail [3, 11]: 3
- Giant foxtail plant response rating ([3]; Rate 62 g/ha, Postemergence): 1
- Giant foxtail plant response rating ([3]; Rate 125 g/ha, Postemergence): 2
- Plant response rating, Giant foxtail ([3]; Rate 125 g/ha, Preemergence): 6
- Plant response rating, Giant foxtail ([3]; Rate 250 g/ha, Postemergence): 2
- Plant response rating, Giant foxtail ([3]; Rate 250 g/ha, Preemergence): 9
- Plant response rating, Giant foxtail ([3]; Rate 500 g/ha, Postemergence): 3
- Plant response rating, Giant foxtail ([3]; Rate 500 g/ha, Preemergence): 10
- Plant response rating, Nutsedge [4, 11]: 0
- Nutsedge plant response rating ([4]; Rate 62 g/ha, Postemergence): 0
- Nutsedge plant response rating ([4]; Rate 125 g/ha, Postemergence): 0
- Plant response rating, Nutsedge ([4]; Rate 125 g/ha, Preemergence): 0
- Plant response rating, Nutsedge ([4]; Rate 250 g/ha, Postemergence): 0
- Plant response rating, Nutsedge ([4]; Rate 250 g/ha, Preemergence): 0
- Plant response rating, Nutsedge ([4]; Rate 500 g/ha, Preemergence): 0
- Plant response rating, Rape (rape (Brassica napus); [11]): 2
- Rape plant response rating (rape (Brassica napus); Rate 62 g/ha, Postemergence): 6
- Rape plant response rating (rape (Brassica napus); Rate 125 g/ha, Postemergence): 6
- Plant response rating, Rape (rape (Brassica napus); Rate 125 g/ha, Preemergence): 3
- Plant response rating, Rape (rape (Brassica napus); Rate 250 g/ha, Preemergence): 4
- Plant response rating, Rape (rape (Brassica napus); Rate 500 g/ha, Postemergence): 7
- Plant response rating, Rape (rape (Brassica napus); Rate 500 g/ha, Preemergence): 8
- Plant response rating, Soybean (soybean (Glycine max); [11]): 0
- Soybean plant response rating (soybean (Glycine max); Rate 62 g/ha, Postemergence): 3
- Soybean plant response rating (soybean (Glycine max); Rate 125 g/ha, Postemergence): 5
- Plant response rating, Soybean (soybean (Glycine max); Rate 125 g/ha, Preemergence): 1
- Plant response rating, Soybean (soybean (Glycine max); Rate 250 g/ha, Postemergence): 7
- Plant response rating, Soybean (soybean (Glycine max); Rate 250 g/ha, Preemergence): 2
- Plant response rating, Soybean (soybean (Glycine max); Rate 500 g/ha, Postemergence): 7
- Plant response rating, Soybean (soybean (Glycine max); Rate 500 g/ha, Preemergence): 2
- Plant response rating, Sugarbeets [5, 11]: 9
- Sugarbeets plant response rating ([5]; Rate 62 g/ha, Postemergence): 10
- Sugarbeets plant response rating ([5]; Rate 125 g/ha, Postemergence): 10
- Plant response rating, Sugarbeets ([5]; Rate 125 g/ha, Preemergence): 10
- Plant response rating, Sugarbeets ([5]; Rate 250 g/ha, Postemergence): 10
- Plant response rating, Sugarbeets ([5]; Rate 250 g/ha, Preemergence): 10
- Plant response rating, Sugarbeets ([5]; Rate 500 g/ha, Postemergence): 10
- Plant response rating, Sugarbeets ([5]; Rate 500 g/ha, Preemergence): 10
- Plant response rating, Velvetleaf [6, 11]: 2
- Velvetleaf plant response rating ([6]; Rate 62 g/ha, Postemergence): 6
- Velvetleaf plant response rating ([6]; Rate 125 g/ha, Postemergence): 7
- Plant response rating, Velvetleaf ([6]; Rate 125 g/ha, Preemergence): 7
- Plant response rating, Velvetleaf ([6]; Rate 250 g/ha, Postemergence): 7
- Plant response rating, Velvetleaf ([6]; Rate 250 g/ha, Preemergence): 7
- Plant response rating, Velvetleaf ([6]; Rate 500 g/ha, Postemergence): 8
- Plant response rating, Velvetleaf ([6]; Rate 500 g/ha, Preemergence): 8
- Plant response rating, Wheat [7, 11]: 1
- Wheat plant response rating ([7]; Rate 62 g/ha, Postemergence): 2
- Wheat plant response rating ([7]; Rate 125 g/ha, Postemergence): 2
- Plant response rating, Wheat ([7]; Rate 125 g/ha, Preemergence): 1
- Plant response rating, Wheat ([7]; Rate 250 g/ha, Postemergence): 2
- Plant response rating, Wheat ([7]; Rate 250 g/ha, Preemergence): 2
- Plant response rating, Wheat ([7]; Rate 500 g/ha, Postemergence): 4
- Plant response rating, Wheat ([7]; Rate 500 g/ha, Preemergence): 4
- Plant response rating, Wild oats (wild oat (Avena fatua); [11]): 4
- Wild oats plant response rating (wild oat (Avena fatua); Rate 62 g/ha, Postemergence): 2
- Wild oats plant response rating (wild oat (Avena fatua); Rate 125 g/ha, Postemergence): 2
- Plant response rating, Wild oats (wild oat (Avena fatua); Rate 125 g/ha, Preemergence): 6
- Plant response rating, Wild oats (wild oat (Avena fatua); Rate 250 g/ha, Postemergence): 2
- Plant response rating, Wild oats (wild oat (Avena fatua); Rate 250 g/ha, Preemergence): 7
- Plant response rating, Wild oats (wild oat (Avena fatua); Rate 500 g/ha, Postemergence): 3
- Plant response rating, Wild oats (wild oat (Avena fatua); Rate 500 g/ha, Preemergence): 8
- Barnyardgrass plant response rating [8, 12]: 2
- Barnyardgrass plant response rating [8, 13]: 3
- Plant response rating, Barnyardgrass ([8]; Rate 250 g/ha): 4
- Plant response rating, Barnyardgrass ([8]; Rate 500 g/ha): 4
- Ducksalad plant response rating [9, 12]: 0
- Ducksalad plant response rating [9, 13]: 1
- Plant response rating, Ducksalad ([9]; Rate 250 g/ha): 2
- Plant response rating, Ducksalad ([9]; Rate 500 g/ha): 3
- Rice plant response rating (rice (Oryza sativa); [12]): 0
- Rice plant response rating (rice (Oryza sativa); [13]): 1
- Plant response rating, Rice (rice (Oryza sativa); Rate 250 g/ha): 3
- Plant response rating, Rice (rice (Oryza sativa); Rate 500 g/ha): 3
- S. Flatsedge plant response rating [10, 12]: 5
- S. Flatsedge plant response rating [10, 13]: 7
- Plant response rating, S. Flatsedge ([10]; Rate 250 g/ha): 7
- Plant response rating, S. Flatsedge ([10]; Rate 500 g/ha): 7
